Where only a bound is given, the exact number is not on record here.

For series [1], the target named is T1, Sodium-dependent noradrenaline transporter (Homo sapiens, UniProt P23975). In words: Binding affinity to human NET.
The target of series [2] is T2, Sodium-dependent dopamine transporter (Homo sapiens, UniProt Q01959). Nature of the series: Binding affinity to human DAT.
The target of series [3] is T3, Sodium-dependent serotonin transporter (Homo sapiens, UniProt P31645). In words: Binding affinity to human SERT.
For series [4], the target named is T2, Sodium-dependent dopamine transporter. Nature of the series: Inhibition of DAT (unknown origin)-mediated uptake.
The target in series [5] is T3, Sodium-dependent serotonin transporter. Nature of the series: Inhibition of SERT (unknown origin)-mediated uptake.
The target in series [6] is Sodium-dependent dopamine transporter (Rattus norvegicus, UniProt P23977). Nature of the series: Inhibition of rat brain DAT assessed as reduction of [3H]-DA re-uptake preincubated for 30 mins followed by [3H]-DA addition measured after 5 mins by scintillation counting.
Series [7] addresses Norepinephrine transporter (Rattus norvegicus, UniProt Q9WTR4). In words: Inhibition of rat brain NET assessed as reduction of [3H]-NE re-uptake preincubated for 30 mins followed by [3H]-NE addition measured after 5 mins by scintillation counting.
In series [8] the target is Sodium-dependent serotonin transporter (Rattus norvegicus, UniProt P31652). In words: Inhibition of rat brain SERT assessed as reduction of [3H]5-HT re-uptake preincubated for 30 mins followed by [3H]5-HT addition measured after 5 mins by scintillation counting.
Series [9] addresses T1, Sodium-dependent noradrenaline transporter. Nature of the series: Binding affinity to human NET expressed in HEK293 cells after 60 mins in presence of [3H]imipramine by liquid scintillation counting. In kind it is cell-based.
Series [10] deals with T2, Sodium-dependent dopamine transporter. In words: Binding affinity to human DAT expressed in HEK293 cells after 60 mins in presence of […] by liquid scintillation counting. In kind it is cell-based.
The target of series [11] is T3, Sodium-dependent serotonin transporter. Nature of the series: biochemical. It counts as cell-based, HEK293.
Description: Binding affinity to human SERT expressed in HEK293 cells after 60 mins in presence of [3H]imipramine by liquid scintillation counting
The target is the same in series [12]. Nature of the series: Inhibition of human SERT expressed in HEK cells assessed as reduction of [3H]5-HT uptake preincubated for 10 mins followed by [3H]5-HT addition measured after 10 mins by scintillation counting method. It counts as cell-based.
In series [13] the target is T1, Sodium-dependent noradrenaline transporter. Nature of the series: Inhibition of human NET expressed in HEK cells assessed as reduction of [3H]-NE uptake preincubated for 10 mins followed by […] measured after 10 mins by scintillation counting method. In kind it is cell-based.
The target of series [14] is T2, Sodium-dependent dopamine transporter. Nature of the series: Inhibition of human DAT expressed in HEK cells assessed as reduction of [3H]-DA uptake preincubated for 10 mins followed by […] measured after 10 mins by scintillation counting method. It counts as cell-based.
Series [15] relates to Homo sapiens. Nature of the series: In vivo receptor occupancy at SERT in human at 1 mg/day by PET imaging method. It counts as functional.
Series [16] concerns the target T2, Sodium-dependent dopamine transporter.
Description: Binding affinity to DAT (unknown origin)
Series [17] has as its target T1, Sodium-dependent noradrenaline transporter.
Description: Binding affinity to NET (unknown origin)
Series [18] relates to Homo sapiens. In words: In vivo receptor occupancy at DAT in human at 1 mg/day by PET imaging method. In kind it is functional.
Series [19] has as its system Homo sapiens. Nature of the series: In vivo receptor occupancy at DAT in human at 2 mg/day by PET imaging method. In kind it is functional.
Series [20] relates to Homo sapiens. Nature of the series: In vivo receptor occupancy at SERT in human at 2 mg/day by PET imaging method. It counts as functional.
Series [21] concerns the target T3, Sodium-dependent serotonin transporter.
Description: Binding affinity to SERT (unknown origin)
In series [22] the test system is Homo sapiens. Nature of the series: In vivo receptor occupancy at SERT in human at 8 to 16 mg after 24 hrs post dose by [11C]-DASB based PET imaging analysis. It counts as functional.
A short description of series [23]: Elimination half life in human at 8 to 36 mg by LC-MS/MS analysis. In kind it is ADME, organism-based. The note with it: in vivo, read-out: beta t1/2.
Series [24] concerns Homo sapiens. Nature of the series: In vivo receptor occupancy at DAT in human at 8 to 16 mg measured 24 hrs post dose by [11C]-PE2I based PET imaging analysis. It counts as functional.
Series [25] can be described thus: Tmax in human at 8 to 36 mg by LC-MS/MS analysis. It counts as ADME, organism-based. The note with it: in vivo.
The nature of series [26]: Half life in human at 4 to 8 mg. The note with it: in vivo. It counts as ADME, organism-based.
The subject of series [27] is Rattus norvegicus. In words: In vivo receptor occupancy at NET in ip dosed rat brain measured 60 mins post dose. The note with it: 1 h. It counts as functional.
Series [28] relates to Rattus norvegicus. Nature of the series: In vivo receptor occupancy at SERT in ip dosed rat brain measured 60 mins post dose. The note with it: 1 h. It counts as functional.
The subject of series [29] is Rattus norvegicus. In words: In vivo receptor occupancy at DAT in ip dosed rat brain measured 60 mins post dose. In kind it is functional. Conditions: 1 h.
The nature of series [30]: Ratio of drug level in human brain to plasma at 30 mg administered qd for 3 days followed by 60 mg administration at qd for next 11 days measured on day 14 post last dose by LC-MS/MS analysis. In kind it is ADME. Conditions: read-out: BPR.
Series [31] in a line: Half life in human cerebrospinal fluid at 30 mg administered qd for 3 days followed by 60 mg administration at qd for next 11 days measured on day 14 post last dose by LC-MS/MS analysis. It counts as ADME, tissue-based.
Series [32] can be described thus: Tmax in human plasma at 30 mg administered qd for 3 days followed by 60 mg administration at qd for next 11 days measured on day 14 post last dose by LC-MS/MS analysis. It counts as ADME, organism-based.
The nature of series [33]: Half life in human brain. It counts as ADME, tissue-based.
Series [34] deals with Homo sapiens. Nature of the series: In vivo receptor occupancy at DAT in iv dosed human measured up to 15 mins by PET analysis. In kind it is functional.

T3 sequence (P31645 whole entry): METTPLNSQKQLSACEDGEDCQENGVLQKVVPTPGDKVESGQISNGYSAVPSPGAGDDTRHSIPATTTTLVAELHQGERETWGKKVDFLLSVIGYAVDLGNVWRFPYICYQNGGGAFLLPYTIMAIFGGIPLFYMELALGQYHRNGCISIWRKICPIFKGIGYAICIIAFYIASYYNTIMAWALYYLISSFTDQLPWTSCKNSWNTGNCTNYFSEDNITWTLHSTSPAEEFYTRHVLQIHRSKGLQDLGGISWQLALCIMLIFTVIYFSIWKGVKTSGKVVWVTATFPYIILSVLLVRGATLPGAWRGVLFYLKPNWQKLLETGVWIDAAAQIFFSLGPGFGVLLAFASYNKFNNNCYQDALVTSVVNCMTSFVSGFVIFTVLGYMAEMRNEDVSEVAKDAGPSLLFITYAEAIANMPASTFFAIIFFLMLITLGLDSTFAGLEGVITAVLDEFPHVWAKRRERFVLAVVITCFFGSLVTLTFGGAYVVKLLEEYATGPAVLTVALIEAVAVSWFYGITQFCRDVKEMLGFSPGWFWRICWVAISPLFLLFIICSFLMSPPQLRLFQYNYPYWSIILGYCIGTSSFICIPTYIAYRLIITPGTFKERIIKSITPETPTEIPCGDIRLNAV
T1 sequence (P23975 whole entry): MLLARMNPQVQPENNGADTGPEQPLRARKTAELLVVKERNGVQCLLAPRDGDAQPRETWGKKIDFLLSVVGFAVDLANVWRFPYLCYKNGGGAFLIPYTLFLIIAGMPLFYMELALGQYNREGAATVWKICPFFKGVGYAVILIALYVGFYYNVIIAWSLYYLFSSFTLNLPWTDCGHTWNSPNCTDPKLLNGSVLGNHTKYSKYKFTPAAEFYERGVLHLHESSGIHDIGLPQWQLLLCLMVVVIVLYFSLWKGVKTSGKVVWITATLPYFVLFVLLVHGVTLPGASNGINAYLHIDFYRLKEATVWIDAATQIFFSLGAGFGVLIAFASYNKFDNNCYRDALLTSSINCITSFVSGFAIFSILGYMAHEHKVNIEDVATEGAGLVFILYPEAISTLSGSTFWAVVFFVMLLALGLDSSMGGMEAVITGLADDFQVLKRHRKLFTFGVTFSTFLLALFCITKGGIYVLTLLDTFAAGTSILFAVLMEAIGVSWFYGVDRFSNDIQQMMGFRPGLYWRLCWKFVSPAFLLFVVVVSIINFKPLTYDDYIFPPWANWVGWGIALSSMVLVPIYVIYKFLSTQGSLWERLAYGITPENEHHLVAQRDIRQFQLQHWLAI
T2 sequence (Q01959 whole entry): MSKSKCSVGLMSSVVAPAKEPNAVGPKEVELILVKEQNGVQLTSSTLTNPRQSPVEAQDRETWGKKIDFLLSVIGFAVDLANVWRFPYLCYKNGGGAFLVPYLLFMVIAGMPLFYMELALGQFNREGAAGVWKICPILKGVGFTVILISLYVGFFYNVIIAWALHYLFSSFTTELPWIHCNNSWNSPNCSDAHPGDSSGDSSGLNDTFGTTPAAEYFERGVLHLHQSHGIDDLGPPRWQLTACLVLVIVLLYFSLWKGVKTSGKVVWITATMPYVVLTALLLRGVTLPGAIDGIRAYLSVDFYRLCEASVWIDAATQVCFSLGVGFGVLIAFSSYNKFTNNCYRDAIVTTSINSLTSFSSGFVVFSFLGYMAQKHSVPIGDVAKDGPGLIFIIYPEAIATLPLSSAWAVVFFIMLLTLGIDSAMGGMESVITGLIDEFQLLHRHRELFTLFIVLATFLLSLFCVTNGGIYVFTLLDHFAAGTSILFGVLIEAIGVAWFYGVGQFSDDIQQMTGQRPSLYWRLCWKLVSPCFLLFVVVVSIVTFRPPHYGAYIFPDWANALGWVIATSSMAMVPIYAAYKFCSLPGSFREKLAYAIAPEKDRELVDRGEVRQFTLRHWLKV
Sodium-dependent dopamine transporter (Rattus norvegicus, UniProt P23977), sequence (P23977 whole entry): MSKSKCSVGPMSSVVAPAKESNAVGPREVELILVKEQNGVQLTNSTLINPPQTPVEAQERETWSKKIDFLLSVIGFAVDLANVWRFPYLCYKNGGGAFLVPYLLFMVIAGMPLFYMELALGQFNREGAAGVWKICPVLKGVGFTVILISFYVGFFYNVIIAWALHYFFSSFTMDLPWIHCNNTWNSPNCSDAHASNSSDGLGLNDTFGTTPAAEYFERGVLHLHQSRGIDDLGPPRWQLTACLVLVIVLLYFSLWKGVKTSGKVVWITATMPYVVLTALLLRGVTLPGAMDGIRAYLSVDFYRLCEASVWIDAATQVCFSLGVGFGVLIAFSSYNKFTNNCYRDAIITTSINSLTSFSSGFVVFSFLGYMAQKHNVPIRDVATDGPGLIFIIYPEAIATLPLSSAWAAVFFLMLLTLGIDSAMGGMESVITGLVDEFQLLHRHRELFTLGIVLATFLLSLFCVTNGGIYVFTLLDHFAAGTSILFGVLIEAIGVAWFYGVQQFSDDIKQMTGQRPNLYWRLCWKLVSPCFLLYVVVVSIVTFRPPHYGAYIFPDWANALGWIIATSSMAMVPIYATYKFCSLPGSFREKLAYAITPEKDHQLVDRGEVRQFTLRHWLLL
Sodium-dependent serotonin transporter (Rattus norvegicus, UniProt P31652), sequence (P31652 whole entry): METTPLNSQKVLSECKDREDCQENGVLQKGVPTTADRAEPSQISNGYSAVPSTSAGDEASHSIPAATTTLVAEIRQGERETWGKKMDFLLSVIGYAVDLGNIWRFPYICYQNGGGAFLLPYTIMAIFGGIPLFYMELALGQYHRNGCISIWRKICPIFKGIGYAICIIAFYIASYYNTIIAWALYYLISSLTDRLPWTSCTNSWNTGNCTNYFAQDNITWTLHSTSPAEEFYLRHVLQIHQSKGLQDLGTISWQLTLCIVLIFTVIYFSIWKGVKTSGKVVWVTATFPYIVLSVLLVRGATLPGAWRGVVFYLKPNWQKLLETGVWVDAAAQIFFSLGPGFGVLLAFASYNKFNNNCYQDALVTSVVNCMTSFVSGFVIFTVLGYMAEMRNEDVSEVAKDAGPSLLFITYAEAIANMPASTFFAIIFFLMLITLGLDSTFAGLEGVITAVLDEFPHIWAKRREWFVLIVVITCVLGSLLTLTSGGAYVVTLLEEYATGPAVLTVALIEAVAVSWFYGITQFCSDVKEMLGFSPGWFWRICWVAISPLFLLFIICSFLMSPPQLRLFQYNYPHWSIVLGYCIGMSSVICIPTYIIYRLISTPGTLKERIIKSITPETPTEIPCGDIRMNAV
Norepinephrine transporter, sequence (Q9WTR4 whole entry): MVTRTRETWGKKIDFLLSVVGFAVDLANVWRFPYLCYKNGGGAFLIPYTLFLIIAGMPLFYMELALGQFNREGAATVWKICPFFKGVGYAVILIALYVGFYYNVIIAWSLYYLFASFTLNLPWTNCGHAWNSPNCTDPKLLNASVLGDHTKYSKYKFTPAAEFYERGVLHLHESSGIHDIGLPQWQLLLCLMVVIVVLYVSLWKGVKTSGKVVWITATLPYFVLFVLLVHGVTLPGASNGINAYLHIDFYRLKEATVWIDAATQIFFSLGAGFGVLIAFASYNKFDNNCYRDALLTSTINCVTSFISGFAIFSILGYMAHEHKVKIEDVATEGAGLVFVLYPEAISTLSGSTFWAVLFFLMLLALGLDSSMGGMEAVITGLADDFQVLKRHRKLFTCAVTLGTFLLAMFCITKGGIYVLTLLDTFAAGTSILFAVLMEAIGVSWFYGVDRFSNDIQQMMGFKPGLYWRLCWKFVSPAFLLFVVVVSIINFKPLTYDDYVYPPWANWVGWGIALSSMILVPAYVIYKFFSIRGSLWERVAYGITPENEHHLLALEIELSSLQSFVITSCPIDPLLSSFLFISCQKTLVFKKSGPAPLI

As for `COC[C@H]1CN[C@@H]2CC[C@@]1(c1ccc(Cl)c(Cl)c1)C2`, the results for the inhibition constant Ki in series [1], in [2] and in series [3] were 3.16 nM, 5.01 nM and 10 nM, respectively.
With `Clc1ccc(C2CCNCC23COC3)cc1Cl` (stereo not drawn), the Ki in [1] was 158 nM; in series [2] it was 158 nM; in series [3], 63.1 nM.
With `Clc1ccc(C2CCNCC23CCOCC3)cc1Cl` (stereo in doubt; 172), the Ki in [1] is 3.98 nM; in [2] it was 12.6 nM; in series [3], 0.316 nM.
Consider `C[C@]1(O)CC[C@@](CN)(c2ccc(Cl)c(Cl)c2)CC1`, for which the IC50 in [4] is 2600 nM; in series [5], over 10000 nM.
As to `CN(C)C[C@]1(c2ccc3ccccc3c2)CC[C@](C)(O)CC1`, the IC50 is 167 nM in series [4] and 7 nM in series [5].
Turning to `CC1CCCN(C(=O)CSC[C@H]2CN(C)CC[C@@H]2c2ccc(Cl)cc2)C1` (stereo partly drawn), the IC50 in series [6] is 120 nM; in series [7], 84 nM; in series [8], 15 nM.
Consider `CNC[C@H](c1ccc2ccccc2c1)[C@H](O)c1ccccc1` (racemic), for which the Ki in [9] was 1.2 nM; in series [10] it was 43 nM; in series [11] it was 12 nM.
In the case of `Clc1ccc(C2CCNCC23CCOCC3)cc1Cl` (stereo in doubt; 171), the figures for the Ki in series [1], in series [2] and in series [3] were 63.1 nM, 31.6 nM and 1.26 nM, respectively.
Consider `c1ccc2cc([C@]34CNCC3C4)ccc2c1` (stereo partly drawn), for which the IC50 amounted to 84 nM in series [12], 6 nM in series [13] and 38 nM in series [14].
As to `COC[C@H]1[C@@H](c2ccc(Cl)c(Cl)c2)C[C@@H]2CC[C@H]1N2C`, the Occ in series [15] is listed as 55%; in series [18] it was 60%; in series [19], 80%; in series [20], 75%. Also, the IC50 in series [16] turned out to be 10 nM; in [17] it was 2 nM; in series [21], 10 nM.
Consider `Clc1ccc([C@@H]2CCNC[C@@]23CCOC3)cc1Cl`, for which the Ki in series [1] is 79.4 nM; in series [2] it was 39.8 nM; in series [3], 5.01 nM.
As to `N[C@H]1CC[C@H](c2ccc(Cl)c(Cl)c2)c2ccccc21`, the Occ in series [22] is recorded as 2 - 14%; in series [24] it was 33 - 49%. In addition, the figures for the IC50 in series [16] and in [17] were 2 nM and 4 nM, respectively. The half-life in series [23] is 44 to 77 h; in series [26], 47 h. In series [25], the Tmax was in the range of 10 to 12 h.
With `Clc1ccc([C@]23CNCC2C3)cc1Cl` (stereo partly drawn), the figures for the ED50 in [27], in series [28] and in series [29] were 2 mg/kg, 0.5 mg/kg and 49 mg/kg, respectively.
Consider `CN(C)C[C@]1(c2ccc(Cl)c(Cl)c2)CC[C@@](C)(O)CC1`, for which the IC50 in [16] was 41 nM; in series [4], 41 nM; in series [5], 34 nM; in series [21] it was 34 nM. The Kp at 14 day in [30] worked out at 0.22. This molecule had a half-life in series [31] of 18 h. Also, the Tmax in [32] was determined as 4 h.
As to `COC[C@@H]1CN[C@@H]2CC[C@@]1(c1ccc(Cl)c(Cl)c1)C2`, the Ki in [1] is 6.31 nM; in series [2], 79.4 nM; in series [3], 31.6 nM.
Regarding `C[C@]1(O)CC[C@](CN)(c2ccc(Cl)c(Cl)c2)CC1`, the concentration for half-maximal inhibition (IC50) amounted to 518 nM in series [4] and 1190 nM in series [5].
`COC(=O)[C@H]1[C@@H](OC(=O)c2ccccc2)C[C@@H]2CC[C@H]1N2C` [COCAINE] showed a half-life in series [33] of 0.333 h.
Regarding `CN(C)C[C@H](c1ccc2ccccc2c1)[C@H](O)C1CCCCC1` (racemic), the values for the inhibition constant (Ki) in series [9], in series [10] and in series [11] were 10 nM, 53 nM and 6 nM, respectively.
With `COC(=O)[C@H](c1ccccc1)[C@H]1CCCCN1` (racemic) [DEXMETHYLPHENIDATE], in [34], the Occ came to 60%. For the same molecule, the half-life in series [33] came to 1.5 h.
`CNC[C@]1(c2ccc(Cl)c(Cl)c2)CC[C@](C)(O)CC1`: the Kp at 14 day in [30] stood at 0.46. In [31], this molecule showed a half-life of 32 h. Besides, the IC50 in series [4] worked out at 71 nM; in [5], 210 nM. The Tmax in series [32] was found to be 6 h.
As for `Cc1ccc(C23CNCC2C3)cc1` (stereo not drawn) [BICIFADINE], the half-inhibitory concentration (IC50) in [16] was 910 nM; in series [17], 55 nM; in [21], 117 nM.
For the molecule `Cc1cc2cc(OC3C[C@H]4CC[C@@H](C3)N4)ccc2oc1=O` (stereo partly drawn), the IC50 in series [16] amounted to 150 nM; in series [17] it was 10 nM; in [21], 0.72 nM.
Taken in the same sequence, the figures for `COC[C@@]12CNCC[C@]1(c1ccc(Cl)c(Cl)c1)C2` [GSK1360707] were 8 nM, 8.1 nM and 9.2 nM.
Consider `CN1Cc2c(N)cccc2C(c2ccc(Cl)c(Cl)c2)C1` (stereo not drawn), for which the results for the Ki in series [16], in series [17] and in series [21] were 10.9 nM, 8.8 nM and 10.3 nM, respectively.
With `COC(=O)[C@H]1CN(C)CC[C@@H]1c1ccc(Cl)cc1`, the figures for the IC50 in series [6], in [7] and in series [8] were 233 nM, 252 nM and 8490 nM, respectively.
As for `CNC[C@H](c1ccc2ccccc2c1)[C@H](O)c1ccccc1`, the inhibitory constant (Ki) in series [9] was 1.5 nM; in series [10] it was 61 nM; in series [11], 2.1 nM.
As to `C#Cc1ccc([C@@H]2CN3CCC[C@@H]3c3ccccc32)cc1`, the figures for the Ki in [16], in [17] and in series [21] were 1.6 nM, 4.1 nM and 0.27 nM, respectively.
`CNC[C@@H](c1ccc2ccccc2c1)[C@@H](O)c1ccccc1`: the results for the Kd in series [9], in series [10] and in series [11] were 42 nM, 200 nM and 210 nM, respectively.
For the molecule `COC[C@@H]1CN[C@H]2CC[C@]1(c1ccc(Cl)c(Cl)c1)C2`, the results for the Ki in series [1], in series [2] and in series [3] were 1.41 nM, 5.75 nM and 2.09 nM, respectively.
`CC(NC(C)(C)C)C(=O)c1cccc(Cl)c1` (stereo not drawn) [BUPROPION] registered an Occ in series [34] of under 30%.
For `Clc1ccc([C@@H]2CCN[C@@H]3CCOC[C@@H]32)cc1Cl`, the Ki in [1] is 50.1 nM; in [2], 39.8 nM; in series [3], 31.6 nM.
With `COC[C@H]1CN[C@H]2CC[C@]1(c1ccc(Cl)c(Cl)c1)C2`, the Ki in series [1] is 0.0794 nM; in series [2], 1.51 nM; in [3] it was 1.26 nM.
On to `C#Cc1ccc([C@H]2CN3CCC[C@H]3c3ccccc32)cc1`, for which the Ki in series [16] amounted to 74.3 nM; in [17] it was 227 nM; in series [21], 15.8 nM.
As for `Clc1ccc(C2CCNCC23CCOCC3)cc1Cl` (racemic), the Ki was 10 nM in series [1], 20 nM in [2] and 0.631 nM in series [3].

The values are drawn from ChEMBL document CHEMBL4219032, “Triple Reuptake Inhibitors as Potential Therapeutics for Depression and Other Disorders: Design Paradigm and Developmental Challenges” (J Med Chem, 2018).
